Laboratory results from PMC3360951 (Chemistry & biology, 2008).

What was measured:
PSA [1] = target: T1, PSA (Homo sapiens, UniProt P07288); assay: PSA activity assay, inhibition kinetics by progress curves; type: biochemical
cathepsin D = cathepsin D (Bos taurus, UniProt P80209); assay: Protease specificity: Cathepsin D Assay Kit; type: biochemical; conditions: in words; over a range of concentrations
cathepsin B = cathepsin B (Homo sapiens, UniProt P07858); assay: Protease specificity: cathepsin B + Z-RR-AMC; type: biochemical; conditions: in words; over a range of concentrations
chymotrypsin = assay: Protease specificity: chymotrypsin + suc-AAF-AMC; type: biochemical
PSA [2] = target: T1, PSA; conditions: 1.5 μM inhibitor, 2 nM PSA, 37°C, 1 hr
PSA [3] = target: T1, PSA; conditions: 500 nM inhibitor, 37°C, western blot
[4] = target: dipeptidyl peptidase 4 (DPP-4) (Homo sapiens, UniProt P27487); assay: Protease specificity: DPP-4 + AP-AFC; type: biochemical
[5] = tested on: PSA-negative TSU human bladder cancer cells; assay: Clonal survival assay, TSU; type: cell-based; conditions: under these same conditions (100 nM, 1 μM)
elastase = assay: Protease specificity: elastase + suc-AAPV-AMC; type: biochemical
trypsin = assay: Protease specificity: trypsin + Bz-R-AMC; type: biochemical
[6] = tested on: LNCaP, LAPC-4, CWR22R, C4-2B, DU145, PC3 human prostate cancer cell lines; assay: MTT growth assay, panel of prostate cancer cell lines; type: cell-based; conditions: 100 nM; cells attached 24 hr before exposure
[7] = tested on: PSA-positive LNCaP human prostate cancer cells; assay: Clonal survival assay, LNCaP; type: cell-based; conditions: compared to vehicle-treated control
[8] = tested on: CWR22R-H PSA-producing human prostate cancer xenograft; assay: Serum free and total PSA per gram of tumor in CWR22R-H xenograft mice; type: in vivo; conditions: over the 10 day period between PSA measurements; 33 mg/kg/dose x 6
[9] = Initial toxicologic studies, intravenous doses in mice; type: in vivo, mouse
[10] = tested on: CWR22R-H PSA-producing human prostate cancer xenograft; assay: Growth of subcutaneous CWR22R-H xenografts; conditions: 33 mg/kg/dose iv x 6 doses (46: equimolar doses); significant only at day 6
[11] = compared to full-length Z-SSKLL-H

T1 sequence (P07288 25-261): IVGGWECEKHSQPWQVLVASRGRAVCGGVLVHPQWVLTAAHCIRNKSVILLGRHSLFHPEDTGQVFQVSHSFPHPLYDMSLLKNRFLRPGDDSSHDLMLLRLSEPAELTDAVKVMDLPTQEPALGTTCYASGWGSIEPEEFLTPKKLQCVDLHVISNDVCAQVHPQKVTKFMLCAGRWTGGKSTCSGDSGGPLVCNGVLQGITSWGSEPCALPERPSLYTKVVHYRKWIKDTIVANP
Sequence of dipeptidyl peptidase 4 (DPP-4) (P27487 whole entry, species assumed): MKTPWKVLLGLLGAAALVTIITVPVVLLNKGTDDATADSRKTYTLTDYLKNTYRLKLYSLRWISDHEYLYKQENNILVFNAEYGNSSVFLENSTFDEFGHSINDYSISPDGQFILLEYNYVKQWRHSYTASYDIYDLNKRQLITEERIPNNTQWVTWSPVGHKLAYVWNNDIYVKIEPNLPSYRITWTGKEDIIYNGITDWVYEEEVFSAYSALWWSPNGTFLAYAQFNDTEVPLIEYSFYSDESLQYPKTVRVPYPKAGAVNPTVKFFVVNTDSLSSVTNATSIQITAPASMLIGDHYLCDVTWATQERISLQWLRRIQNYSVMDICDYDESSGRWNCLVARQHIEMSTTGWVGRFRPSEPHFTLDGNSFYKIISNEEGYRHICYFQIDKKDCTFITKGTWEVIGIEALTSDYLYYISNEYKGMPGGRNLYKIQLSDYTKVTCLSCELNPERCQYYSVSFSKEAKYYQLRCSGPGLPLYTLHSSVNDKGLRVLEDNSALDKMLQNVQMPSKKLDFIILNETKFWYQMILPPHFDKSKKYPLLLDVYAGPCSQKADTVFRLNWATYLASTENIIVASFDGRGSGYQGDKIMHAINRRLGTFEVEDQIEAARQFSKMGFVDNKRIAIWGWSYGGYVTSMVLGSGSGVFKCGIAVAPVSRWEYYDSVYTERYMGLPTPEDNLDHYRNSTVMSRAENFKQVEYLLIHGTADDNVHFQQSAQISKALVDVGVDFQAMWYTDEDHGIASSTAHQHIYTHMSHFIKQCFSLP
Sequence of cathepsin D (P80209 45-390): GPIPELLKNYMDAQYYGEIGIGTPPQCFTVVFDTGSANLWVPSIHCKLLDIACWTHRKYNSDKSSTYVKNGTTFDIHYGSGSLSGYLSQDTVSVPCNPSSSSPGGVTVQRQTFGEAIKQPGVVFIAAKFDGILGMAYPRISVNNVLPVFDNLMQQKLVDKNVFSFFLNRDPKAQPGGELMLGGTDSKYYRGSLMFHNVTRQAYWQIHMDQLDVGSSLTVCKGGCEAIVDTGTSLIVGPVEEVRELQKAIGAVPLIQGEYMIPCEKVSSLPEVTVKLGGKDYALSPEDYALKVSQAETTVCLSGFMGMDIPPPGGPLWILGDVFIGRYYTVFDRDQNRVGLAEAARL

Z-SKLL-H [compound 8]
fold higher Ki for PSA (PSA [1]; [11]): ~ 6.5 fold

Z-KL(boro)Nle [compound 37]
fold increase in Ki for PSA (PSA [1]; compared to Z-SSKL(boro)Nle): 59 fold

Z-SSKYL-H [compound 2]
fold higher Ki for PSA (PSA [1]; [11]): ~ 2 fold

Z-KL(boro)L [compound 36]
fold increase in Ki for PSA (PSA [1]; compared to Z-SSKL(boro)L): 90 fold

Z-SSKIL-H [compound 4]
fold higher Ki for PSA (PSA [1]; [11]): ~ 6 fold

Z-SSKL(boro)L [compound 39]
inhibition of cathepsin D (cathepsin D): no inhibition
inhibition of cathepsin B (cathepsin B): no inhibition
fold higher Ki for chymotrypsin than for PSA (chymotrypsin): 60 fold
Ki (chymotrypsin; chymotrypsin): 3.9 µM
Selectivity (chymotrypsin; chymotrypsin relative to PSA inhibition): 60
PSA cleavage of the PTHrP peptide 1-34 (PSA [2]): completely inhibited
protection of IGFBP3 from degradation by PSA (PSA [3]): protected IGFBP3 from degradation by PSA
Selectivity ([4]; DPPIV relative to PSA inhibition): >1500
inhibition of DPP-4 ([4]; in words): did not inhibit
fold higher Ki for PSA (PSA [1]; compared to Z-SSL(boro)L): ~ 8 fold
Selectivity (PSA [1]; relative to PSA inhibition, PSA itself): 1
inhibition of clonal survival [5]: ~ 25%
selectivity for PSA over elastase (elastase): 22 times
Ki (elastase; elastase): 1.39 µM
Selectivity (elastase; elastase relative to PSA inhibition): 22
inhibition of elastase (elastase; in words): Modest inhibition
inhibition of trypsin (trypsin; in words): did not inhibit
Ki (trypsin; trypsin): > 100 µM
Selectivity (trypsin; trypsin relative to PSA inhibition): >1500
effect on growth of cell lines [6]: marginal effect
inhibition of clonal survival ([7]; 100 nM): ~ 75%
inhibition of clonal survival ([7]; 1 μM): ~ 85%

Z-SSKLL-CH2OH [compound 26]
inhibition of PSA (PSA [1]; in words): did not inhibit PSA

Mu-SSKL(boro)L
increase of free PSA levels/gram of tumor [8]: 13%
increase of total PSA levels/gram of tumor [8]: 1.85 fold
effect on body weight ([9]; dose of 100 mg/kg, mice): transient weight loss
lethality (fraction of the mice) ([9]; dose of 300 mg/kg): one-third
effects on mouse body weight ([9]; repeat intravenous doses of 33 mg/kg): no significant effects
tolerability ([9]; repeat intravenous doses of 33 mg/kg, mice): well tolerated
effect on tumor volume / tumor growth compared to vehicle control [10]: slight decrease in tumor volume

Z-SSKL(boro)Nle [compound 38]
fold increase in Ki for PSA (PSA [1]; compared to Z-SSKL(boro)L): ~ 5 fold
